Experiments:
Assay in all cases: KINOMEscan competition binding
Settings in all cases: compound 10.0 µM
[1] = biological target: MAPKAPK2 (human) (UniProt P49137)
[2] = biological target: STK35 (human) (UniProt Q8TDR2)
[3] = biological target: JAK3 JH1 catalytic (human) (UniProt P52333)
[4] = biological target: MAP4K1 (human) (UniProt Q92918)
[5] = biological target: MAPK6 (human) (UniProt Q16659)
[6] = biological target: EPHB2 (human) (UniProt P29323)
[7] = biological target: MAPK14 (human) (UniProt Q16539)
[8] = biological target: FES (human) (UniProt P07332)
[9] = biological target: CDC2L2 (human) (UniProt Q9UQ88)
[10] = biological target: FLT3 (human) (UniProt P36888)
Sequence of FLT3 (human) (P36888 whole entry, looked up): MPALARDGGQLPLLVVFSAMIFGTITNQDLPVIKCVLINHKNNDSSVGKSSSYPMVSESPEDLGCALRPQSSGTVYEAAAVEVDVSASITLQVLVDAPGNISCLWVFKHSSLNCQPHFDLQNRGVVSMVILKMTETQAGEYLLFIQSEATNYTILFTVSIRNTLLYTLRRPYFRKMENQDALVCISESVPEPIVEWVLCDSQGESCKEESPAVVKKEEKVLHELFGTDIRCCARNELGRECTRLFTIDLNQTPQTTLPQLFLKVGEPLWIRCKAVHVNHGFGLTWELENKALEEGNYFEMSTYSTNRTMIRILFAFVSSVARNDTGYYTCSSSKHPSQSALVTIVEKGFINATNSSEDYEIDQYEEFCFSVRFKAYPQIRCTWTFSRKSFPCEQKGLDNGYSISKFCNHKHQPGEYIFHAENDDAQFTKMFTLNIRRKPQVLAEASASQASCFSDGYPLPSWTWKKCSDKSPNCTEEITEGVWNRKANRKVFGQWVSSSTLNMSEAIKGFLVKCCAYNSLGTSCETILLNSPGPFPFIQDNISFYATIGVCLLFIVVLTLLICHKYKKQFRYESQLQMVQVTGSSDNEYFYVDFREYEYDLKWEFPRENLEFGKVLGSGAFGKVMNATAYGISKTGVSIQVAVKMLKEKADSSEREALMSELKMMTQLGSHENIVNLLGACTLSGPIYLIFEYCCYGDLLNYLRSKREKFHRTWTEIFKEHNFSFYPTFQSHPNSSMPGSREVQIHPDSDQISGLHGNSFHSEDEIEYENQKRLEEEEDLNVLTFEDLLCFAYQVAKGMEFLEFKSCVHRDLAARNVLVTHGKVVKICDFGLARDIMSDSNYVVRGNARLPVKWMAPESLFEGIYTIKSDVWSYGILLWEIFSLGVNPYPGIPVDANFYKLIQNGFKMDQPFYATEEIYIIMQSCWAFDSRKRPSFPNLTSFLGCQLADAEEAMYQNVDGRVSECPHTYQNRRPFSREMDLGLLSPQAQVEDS

[11] = biological target: CDK16 (human) (UniProt Q00536)
[12] = tested on: PIK3CA (human), P42336 [H1047Y]
[13] = biological target: STK38L (human) (UniProt Q9Y2H1)
[14] = biological target: PRKD3 (human) (UniProt O94806)
[15] = biological target: PRPF4B (human) (UniProt Q13523)
[16] = biological target: RIOK3 (human) (UniProt O14730)
[17] = biological target: PRKD1 (human) (UniProt Q15139)
[18] = biological target: MAP3K1 (human) (UniProt Q13233)
Sequence of MAP3K1 (human) (Q13233 whole entry, looked up): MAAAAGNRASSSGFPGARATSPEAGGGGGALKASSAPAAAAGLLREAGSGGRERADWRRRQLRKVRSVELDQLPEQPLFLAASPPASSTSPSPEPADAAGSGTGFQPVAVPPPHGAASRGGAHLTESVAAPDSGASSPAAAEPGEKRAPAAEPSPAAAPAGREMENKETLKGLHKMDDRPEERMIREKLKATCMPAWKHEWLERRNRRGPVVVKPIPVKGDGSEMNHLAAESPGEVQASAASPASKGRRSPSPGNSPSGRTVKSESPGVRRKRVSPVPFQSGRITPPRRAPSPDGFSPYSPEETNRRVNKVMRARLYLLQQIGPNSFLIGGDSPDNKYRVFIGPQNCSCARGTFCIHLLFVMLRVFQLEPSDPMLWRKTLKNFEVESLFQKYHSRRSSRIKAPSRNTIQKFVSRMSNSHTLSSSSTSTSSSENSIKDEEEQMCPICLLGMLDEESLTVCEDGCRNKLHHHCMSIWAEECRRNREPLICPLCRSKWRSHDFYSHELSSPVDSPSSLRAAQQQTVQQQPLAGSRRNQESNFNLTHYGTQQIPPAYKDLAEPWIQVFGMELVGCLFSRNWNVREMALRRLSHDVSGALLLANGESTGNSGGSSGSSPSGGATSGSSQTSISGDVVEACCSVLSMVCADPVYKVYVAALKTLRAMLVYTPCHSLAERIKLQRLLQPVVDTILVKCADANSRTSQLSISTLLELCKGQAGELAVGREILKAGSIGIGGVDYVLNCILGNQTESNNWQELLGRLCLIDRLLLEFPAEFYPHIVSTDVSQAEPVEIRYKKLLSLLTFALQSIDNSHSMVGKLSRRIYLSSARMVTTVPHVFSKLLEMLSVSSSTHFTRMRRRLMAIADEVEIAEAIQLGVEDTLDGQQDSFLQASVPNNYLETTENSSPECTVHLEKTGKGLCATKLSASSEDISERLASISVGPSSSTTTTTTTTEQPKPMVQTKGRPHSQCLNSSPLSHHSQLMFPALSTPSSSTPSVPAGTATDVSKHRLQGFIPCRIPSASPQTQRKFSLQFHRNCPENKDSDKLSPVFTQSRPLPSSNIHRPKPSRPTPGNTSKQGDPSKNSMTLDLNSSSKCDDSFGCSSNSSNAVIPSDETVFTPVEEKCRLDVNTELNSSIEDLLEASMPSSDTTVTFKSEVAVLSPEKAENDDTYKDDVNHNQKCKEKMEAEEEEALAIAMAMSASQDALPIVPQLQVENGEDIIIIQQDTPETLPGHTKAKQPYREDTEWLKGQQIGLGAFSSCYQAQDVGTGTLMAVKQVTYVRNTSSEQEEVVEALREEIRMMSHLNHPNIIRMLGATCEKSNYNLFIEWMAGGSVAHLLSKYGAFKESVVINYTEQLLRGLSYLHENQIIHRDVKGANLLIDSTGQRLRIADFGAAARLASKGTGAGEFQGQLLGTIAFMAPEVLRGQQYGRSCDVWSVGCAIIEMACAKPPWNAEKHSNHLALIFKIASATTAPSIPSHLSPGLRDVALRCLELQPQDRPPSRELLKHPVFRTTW

[19] = biological target: ULK3 (human) (UniProt Q6PHR2)
Sequence of ULK3 (human) (Q6PHR2 whole entry, looked up): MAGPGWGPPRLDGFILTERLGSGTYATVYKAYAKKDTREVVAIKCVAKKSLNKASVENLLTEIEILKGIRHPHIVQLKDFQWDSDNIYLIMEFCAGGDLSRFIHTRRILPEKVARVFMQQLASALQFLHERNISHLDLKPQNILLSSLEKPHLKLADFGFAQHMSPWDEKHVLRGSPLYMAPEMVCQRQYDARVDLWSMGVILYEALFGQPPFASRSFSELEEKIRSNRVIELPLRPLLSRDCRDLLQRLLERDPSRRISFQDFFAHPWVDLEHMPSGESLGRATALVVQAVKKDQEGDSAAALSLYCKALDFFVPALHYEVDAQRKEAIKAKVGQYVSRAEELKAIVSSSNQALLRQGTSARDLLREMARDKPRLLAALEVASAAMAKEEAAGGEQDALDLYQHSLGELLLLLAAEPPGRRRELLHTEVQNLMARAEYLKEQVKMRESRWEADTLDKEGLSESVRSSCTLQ

[20] = biological target: TNK1 (human) (UniProt Q13470)
[21] = biological target: PIM1 (human) (UniProt P11309)
[22] = biological target: STK11 (human) (UniProt Q15831)
[23] = biological target: PHKG2 (human) (UniProt P15735)
Sequence of PHKG2 (human) (P15735 whole entry, looked up): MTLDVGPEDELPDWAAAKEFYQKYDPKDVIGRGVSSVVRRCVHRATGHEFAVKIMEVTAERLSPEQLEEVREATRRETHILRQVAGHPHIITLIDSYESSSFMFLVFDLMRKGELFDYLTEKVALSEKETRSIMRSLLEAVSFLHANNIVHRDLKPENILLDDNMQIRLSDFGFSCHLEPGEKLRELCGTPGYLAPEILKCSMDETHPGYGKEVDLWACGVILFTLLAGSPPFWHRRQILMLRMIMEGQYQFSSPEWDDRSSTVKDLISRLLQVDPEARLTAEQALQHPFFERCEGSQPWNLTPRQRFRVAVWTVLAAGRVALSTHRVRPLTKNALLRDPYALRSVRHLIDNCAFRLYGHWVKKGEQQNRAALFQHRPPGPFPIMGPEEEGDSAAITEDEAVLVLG

[24] = biological target: MAP2K3 (human) (UniProt P46734)
[25] = biological target: ZAP70 (human) (UniProt P43403)
[26] = biological target: MAP2K2 (human) (UniProt P36507)
[27] = biological target: TYRO3 (human) (UniProt Q06418)
[28] = biological target: TNIK (human) (UniProt Q9UKE5)
[29] = biological target: OXSR1 (human) (UniProt O95747)
Sequence of OXSR1 (human) (O95747 whole entry, looked up): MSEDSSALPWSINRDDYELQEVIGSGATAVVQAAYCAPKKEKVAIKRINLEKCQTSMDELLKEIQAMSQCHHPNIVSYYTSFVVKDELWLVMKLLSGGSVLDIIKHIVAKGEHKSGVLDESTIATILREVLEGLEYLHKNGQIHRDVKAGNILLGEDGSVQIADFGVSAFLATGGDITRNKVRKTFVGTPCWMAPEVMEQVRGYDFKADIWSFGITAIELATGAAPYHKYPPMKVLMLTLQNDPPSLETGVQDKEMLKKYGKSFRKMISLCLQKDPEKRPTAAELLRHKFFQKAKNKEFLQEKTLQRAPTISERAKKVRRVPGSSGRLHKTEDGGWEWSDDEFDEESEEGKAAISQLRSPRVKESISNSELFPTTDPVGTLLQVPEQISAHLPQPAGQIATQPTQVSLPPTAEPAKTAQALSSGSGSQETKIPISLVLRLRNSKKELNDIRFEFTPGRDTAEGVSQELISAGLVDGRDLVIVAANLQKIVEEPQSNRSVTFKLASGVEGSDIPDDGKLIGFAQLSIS

[30] = biological target: DCLK1 (human) (UniProt O15075)
[31] = biological target: KDR (human) (UniProt P35968)
[32] = biological target: YES1 (human) (UniProt P07947)
[33] = biological target: IKBKB (human) (UniProt O14920)
[34] = biological target: STK10 (human) (UniProt O94804)
[35] = biological target: TBK1 (human) (UniProt Q9UHD2)
[36] = biological target: ACVR1B (human) (UniProt P36896)
[37] = biological target: ROCK2 (human) (UniProt O75116)
[38] = biological target: DSTYK (human) (UniProt Q6XUX3)
[39] = biological target: PKN3 (M.tuberculosis) (UniProt Q6P5Z2)

Sequence of JAK3 JH1 catalytic (human) (P52333 whole entry, looked up): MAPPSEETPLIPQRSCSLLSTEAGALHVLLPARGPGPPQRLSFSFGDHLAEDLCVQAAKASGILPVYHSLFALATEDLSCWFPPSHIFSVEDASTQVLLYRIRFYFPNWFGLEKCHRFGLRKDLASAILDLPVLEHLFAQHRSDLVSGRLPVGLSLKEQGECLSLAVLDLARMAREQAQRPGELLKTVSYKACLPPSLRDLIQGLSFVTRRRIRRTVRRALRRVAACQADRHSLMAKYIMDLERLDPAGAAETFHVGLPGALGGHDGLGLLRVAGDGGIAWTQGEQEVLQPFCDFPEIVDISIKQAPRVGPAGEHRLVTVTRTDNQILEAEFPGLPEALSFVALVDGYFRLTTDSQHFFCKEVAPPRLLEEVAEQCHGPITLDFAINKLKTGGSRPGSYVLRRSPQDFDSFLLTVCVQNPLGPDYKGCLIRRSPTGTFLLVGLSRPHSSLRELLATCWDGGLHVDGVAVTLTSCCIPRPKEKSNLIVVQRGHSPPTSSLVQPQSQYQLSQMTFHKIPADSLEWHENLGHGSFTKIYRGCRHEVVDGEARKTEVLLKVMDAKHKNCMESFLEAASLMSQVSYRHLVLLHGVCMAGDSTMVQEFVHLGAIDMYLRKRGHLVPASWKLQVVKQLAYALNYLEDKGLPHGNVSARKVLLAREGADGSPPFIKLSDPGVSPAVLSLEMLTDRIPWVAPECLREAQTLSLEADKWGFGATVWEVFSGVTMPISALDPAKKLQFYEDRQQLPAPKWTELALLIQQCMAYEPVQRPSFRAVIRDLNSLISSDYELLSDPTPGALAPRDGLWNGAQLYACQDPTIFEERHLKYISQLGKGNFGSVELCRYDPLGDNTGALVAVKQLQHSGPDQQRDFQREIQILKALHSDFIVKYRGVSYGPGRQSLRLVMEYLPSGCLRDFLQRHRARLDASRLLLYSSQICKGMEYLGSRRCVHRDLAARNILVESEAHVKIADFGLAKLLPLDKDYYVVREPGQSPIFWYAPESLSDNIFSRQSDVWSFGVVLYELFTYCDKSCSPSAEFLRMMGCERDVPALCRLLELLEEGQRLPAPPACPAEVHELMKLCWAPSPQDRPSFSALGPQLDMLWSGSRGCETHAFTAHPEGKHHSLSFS

COc1cc(C(=O)NC2CCN(C)CC2)ccc1Nc1ncc2c(n1)N(C1CCCC1)CCC(=O)N2C(C)C
kinase still bound, per cent of control [1]: 100%
kinase still bound, per cent of control [2]: 100%
kinase still bound, per cent of control [3]: 100%
kinase still bound, per cent of control [4]: 100%
kinase still bound, per cent of control [5]: 100%
kinase still bound, per cent of control [6]: 100%
kinase still bound, per cent of control [7]: 100%
kinase still bound, per cent of control [8]: 100%
kinase still bound, per cent of control [9]: 100%
kinase still bound, per cent of control [10]: 100%
kinase still bound, per cent of control [11]: 100%
kinase still bound, per cent of control [12]: 100%
kinase still bound, per cent of control [13]: 100%
kinase still bound, per cent of control [14]: 100%
kinase still bound, per cent of control [15]: 100%
kinase still bound, per cent of control [16]: 100%
kinase still bound, per cent of control [17]: 100%
kinase still bound, per cent of control [18]: 100%
kinase still bound, per cent of control [19]: 100%
kinase still bound, per cent of control [20]: 100%
kinase still bound, per cent of control [21]: 100%
kinase still bound, per cent of control [22]: 100%
kinase still bound, per cent of control [23]: 100%
kinase still bound, per cent of control [24]: 100%
kinase still bound, per cent of control [25]: 100%
kinase still bound, per cent of control [26]: 100%
kinase still bound, per cent of control [27]: 100%
kinase still bound, per cent of control [28]: 100%
kinase still bound, per cent of control [29]: 100%
kinase still bound, per cent of control [30]: 100%
kinase still bound, per cent of control [31]: 100%
kinase still bound, per cent of control [32]: 100%
kinase still bound, per cent of control [33]: 100%
kinase still bound, per cent of control [34]: 100%
kinase still bound, per cent of control [35]: 100%
kinase still bound, per cent of control [36]: 100%
kinase still bound, per cent of control [37]: 100%

OCCCNc1cc(-c2ccnc(Nc3cccc(Cl)c3)n2)ccn1
kinase still bound, per cent of control [1]: 100%
kinase still bound, per cent of control [2]: 100%
kinase still bound, per cent of control [3]: 100%
kinase still bound, per cent of control [4]: 100%
kinase still bound, per cent of control [5]: 100%
kinase still bound, per cent of control [6]: 100%
kinase still bound, per cent of control [7]: 100%
kinase still bound, per cent of control [8]: 100%
kinase still bound, per cent of control [9]: 100%
kinase still bound, per cent of control [10]: 100%
kinase still bound, per cent of control [11]: 1.9%
kinase still bound, per cent of control [12]: 100%
kinase still bound, per cent of control [13]: 100%
kinase still bound, per cent of control [14]: 100%
kinase still bound, per cent of control [15]: 100%
kinase still bound, per cent of control [16]: 100%
kinase still bound, per cent of control [17]: 100%
kinase still bound, per cent of control [18]: 100%
kinase still bound, per cent of control [19]: 100%
kinase still bound, per cent of control [20]: 100%
kinase still bound, per cent of control [21]: 100%
kinase still bound, per cent of control [22]: 100%
kinase still bound, per cent of control [23]: 100%
kinase still bound, per cent of control [24]: 100%
kinase still bound, per cent of control [25]: 100%
kinase still bound, per cent of control [26]: 100%
kinase still bound, per cent of control [27]: 100%
kinase still bound, per cent of control [28]: 100%
kinase still bound, per cent of control [29]: 100%
kinase still bound, per cent of control [30]: 100%
kinase still bound, per cent of control [31]: 100%
kinase still bound, per cent of control [32]: 100%
kinase still bound, per cent of control [33]: 100%
kinase still bound, per cent of control [34]: 100%
kinase still bound, per cent of control [35]: 100%
kinase still bound, per cent of control [36]: 100%
kinase still bound, per cent of control [37]: 100%

CCCS(=O)(=O)Nc1ccc(F)c(C(=O)c2c[nH]c3ncc(-c4ccc(Cl)cc4)cc23)c1F
kinase still bound, per cent of control [38]: 22%
kinase still bound, per cent of control [1]: 100%
kinase still bound, per cent of control [2]: 100%
kinase still bound, per cent of control [3]: 83%
kinase still bound, per cent of control [4]: 20%
kinase still bound, per cent of control [5]: 100%
kinase still bound, per cent of control [6]: 99%
kinase still bound, per cent of control [7]: 70%
kinase still bound, per cent of control [8]: 41%
kinase still bound, per cent of control [9]: 91%
kinase still bound, per cent of control [10]: 2.4%
kinase still bound, per cent of control [11]: 96%
kinase still bound, per cent of control [12]: 88%
kinase still bound, per cent of control [13]: 100%
kinase still bound, per cent of control [14]: 44%
kinase still bound, per cent of control [15]: 92%
kinase still bound, per cent of control [39]: 78%
kinase still bound, per cent of control [16]: 100%
kinase still bound, per cent of control [17]: 8.2%
kinase still bound, per cent of control [18]: 91%
kinase still bound, per cent of control [19]: 46%
kinase still bound, per cent of control [20]: 100%
kinase still bound, per cent of control [21]: 95%
kinase still bound, per cent of control [22]: 75%
kinase still bound, per cent of control [23]: 100%
kinase still bound, per cent of control [25]: 90%
kinase still bound, per cent of control [26]: 5.4%
kinase still bound, per cent of control [27]: 100%
kinase still bound, per cent of control [28]: 15%
kinase still bound, per cent of control [29]: 95%
kinase still bound, per cent of control [30]: 88%
kinase still bound, per cent of control [31]: 31%
kinase still bound, per cent of control [32]: 18%
kinase still bound, per cent of control [33]: 100%
kinase still bound, per cent of control [34]: 16%
kinase still bound, per cent of control [35]: 100%
kinase still bound, per cent of control [36]: 78%
kinase still bound, per cent of control [37]: 77%

Cn1c(=O)n(-c2ccc(C(C)(C)C#N)cc2)c2c3cc(-c4cnc5ccccc5c4)ccc3ncc21
kinase still bound, per cent of control [1]: 100%
kinase still bound, per cent of control [2]: 100%
kinase still bound, per cent of control [3]: 100%
kinase still bound, per cent of control [4]: 100%
kinase still bound, per cent of control [5]: 100%
kinase still bound, per cent of control [6]: 100%
kinase still bound, per cent of control [7]: 100%
kinase still bound, per cent of control [8]: 100%
kinase still bound, per cent of control [9]: 100%
kinase still bound, per cent of control [10]: 100%
kinase still bound, per cent of control [11]: 100%
kinase still bound, per cent of control [12]: 6.2%
kinase still bound, per cent of control [13]: 100%
kinase still bound, per cent of control [14]: 100%
kinase still bound, per cent of control [15]: 100%
kinase still bound, per cent of control [16]: 100%
kinase still bound, per cent of control [17]: 100%
kinase still bound, per cent of control [18]: 100%
kinase still bound, per cent of control [19]: 100%
kinase still bound, per cent of control [20]: 100%
kinase still bound, per cent of control [21]: 100%
kinase still bound, per cent of control [22]: 100%
kinase still bound, per cent of control [23]: 100%
kinase still bound, per cent of control [24]: 100%
kinase still bound, per cent of control [25]: 100%
kinase still bound, per cent of control [26]: 100%
kinase still bound, per cent of control [27]: 100%
kinase still bound, per cent of control [28]: 100%
kinase still bound, per cent of control [29]: 100%
kinase still bound, per cent of control [30]: 100%
kinase still bound, per cent of control [31]: 100%
kinase still bound, per cent of control [32]: 100%
kinase still bound, per cent of control [33]: 100%
kinase still bound, per cent of control [34]: 100%
kinase still bound, per cent of control [35]: 100%
kinase still bound, per cent of control [36]: 100%
kinase still bound, per cent of control [37]: 100%
